# According to PubChem BioAssay (NCI):
#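 Compound exposure: 48 hours, 5 concentrations, 96-well plates. TGI: concentration producing complete growth inhibition.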
# Experiments:
# Test in all cases: NCI tumour cell line growth inhibition, 48 h
# [1] = tested on: SNB-19 CNS
# [2] = tested on: NCI/ADR-RES ovarian
# [3] = tested on: COLO 205 colon
# [4] = tested on: RXF 393 renal
# [5] = tested on: BT-549 breast
# [6] = tested on: SK-MEL-28 melanoma
# [7] = tested on: HS 578T breast
# [8] = tested on: OVCAR-5 ovarian
# [9] = tested on: SK-MEL-5 melanoma
# [10] = tested on: HCC-2998 colon
# [11] = tested on: 786-0 renal
# [12] = tested on: UACC-257 melanoma
# [13] = tested on: NCI-H23 lung
# [14] = tested on: SN12C renal
# [15] = tested on: MDA-N
# [16] = tested on: SF-539 CNS
# [17] = tested on: TK-10 renal
# [18] = tested on: MALME-3M melanoma
# [19] = tested on: RPMI-8226 leukemia
# [20] = tested on: OVCAR-8 ovarian
# [21] = tested on: NCI-H226 lung
# [22] = tested on: K-562 leukemia
# [23] = tested on: HT29 colon
# [24] = tested on: HCT-15 colon
# [25] = tested on: SF-295 CNS
# [26] = tested on: SNB-75 CNS
# [27] = tested on: U251 CNS
# [28] = tested on: MCF7 breast
# [29] = tested on: HL-60(TB) leukemia
# [30] = tested on: A498 renal
# [31] = tested on: DU-145 prostate
# [32] = tested on: MOLT-4 leukemia
# [33] = tested on: NCI-H460 lung
# [34] = tested on: OVCAR-3 ovarian
# [35] = tested on: SF-268 CNS
# [36] = tested on: SK-MEL-2 melanoma
# [37] = tested on: UO-31 renal
# [38] = tested on: T-47D breast
# [39] = tested on: M14 melanoma
# [40] = tested on: OVCAR-4 ovarian
# [41] = tested on: UACC-62 melanoma
# [42] = tested on: CCRF-CEM leukemia
# [43] = tested on: SK-OV-3 ovarian
# [44] = tested on: ACHN renal
# [45] = tested on: HOP-62 NSCLC
# [46] = tested on: MDA-MB-231 breast
# [47] = tested on: CAKI-1 renal
# [48] = tested on: KM12 colon
# [49] = tested on: HCT-116 colon
# [50] = tested on: LOX IMVI melanoma
# [51] = tested on: SW-620 colon
# [52] = tested on: HOP-92 NSCLC
# [53] = tested on: MDA-MB-435
# [54] = tested on: EKVX NSCLC
# [55] = tested on: A549 NSCLC
# [56] = tested on: IGROV1 ovarian
# [57] = tested on: PC-3 prostate
# [58] = tested on: NCI-H522 lung
structure (smiles),measurement,setting,value
O=C(C(=NC12CC3CC(CC(C3)C1)C2)NNc1ccc([N+](=O)[O-])cc1[N+](=O)[O-])C(Br)C(=O)c1ccccc1 (stereo not drawn),TGI,[1],> 10 µM
same,TGI,[2],> 10 µM
same,TGI,[3],4.23 µM
same,TGI,[4],8.31 µM
same,TGI,[5],> 10 µM
same,TGI,[6],> 10 µM
same,TGI,[7],> 10 µM
same,TGI,[8],> 10 µM
same,TGI,[9],2.5 µM
same,TGI,[10],> 10 µM
same,TGI,[11],> 10 µM
same,TGI,[12],6.28 µM
same,TGI,[13],8.4 µM
same,TGI,[14],> 10 µM
same,TGI,[15],> 10 µM
same,TGI,[16],8.73 µM
same,TGI,[17],> 10 µM
same,TGI,[18],> 10 µM
same,TGI,[19],6.38 µM
same,TGI,[20],> 10 µM
same,TGI,[21],8.31 µM
same,TGI,[22],> 10 µM
same,TGI,[23],> 10 µM
same,TGI,[24],> 10 µM
same,TGI,[25],> 10 µM
same,TGI,[26],7.38 µM
same,TGI,[27],> 10 µM
same,TGI,[28],> 10 µM
same,TGI,[29],5.57 µM
same,TGI,[30],6.96 µM
same,TGI,[31],> 10 µM
same,TGI,[32],9.72 µM
same,TGI,[33],> 10 µM
same,TGI,[34],8.83 µM
same,TGI,[35],> 10 µM
same,TGI,[36],> 10 µM
same,TGI,[37],> 10 µM
same,TGI,[38],9.29 µM
same,TGI,[39],6.84 µM
same,TGI,[40],> 10 µM
same,TGI,[41],> 10 µM
same,TGI,[42],7.67 µM
same,TGI,[43],9.04 µM
same,TGI,[44],> 10 µM
same,TGI,[45],6.84 µM
same,TGI,[46],6.13 µM
same,TGI,[47],> 10 µM
same,TGI,[48],> 10 µM
same,TGI,[49],8.78 µM
same,TGI,[50],6.25 µM
same,TGI,[51],> 10 µM
same,TGI,[52],6.66 µM
same,TGI,[53],> 10 µM
same,TGI,[54],9.64 µM
same,TGI,[55],> 10 µM
same,TGI,[56],> 10 µM
same,TGI,[57],9.87 µM
CC1(C)OCC(C2CCC3(C)C4=CCC5C(C)(C)C(O)CCC5(C)C4CCC23C)CC(O)C1O (stereo not drawn),TGI,[1],29.5 µM
same,TGI,[2],39.5 µM
same,TGI,[3],43.5 µM
same,TGI,[5],32.9 µM
same,TGI,[6],32.6 µM
same,TGI,[7],44.7 µM
same,TGI,[8],36.2 µM
same,TGI,[9],28.7 µM
same,TGI,[10],32.3 µM
same,TGI,[11],28.7 µM
same,TGI,[12],30.6 µM
same,TGI,[13],38.2 µM
same,TGI,[14],36.2 µM
same,TGI,[15],34.5 µM
same,TGI,[16],39.9 µM
same,TGI,[17],28.7 µM
same,TGI,[18],30.6 µM
same,TGI,[19],48.6 µM
same,TGI,[20],33.3 µM
same,TGI,[21],32.9 µM
same,TGI,[22],21.6 µM
same,TGI,[23],33.4 µM
same,TGI,[24],32.8 µM
same,TGI,[25],35.6 µM
same,TGI,[26],29 µM
same,TGI,[27],31.3 µM
same,TGI,[58],36.3 µM
same,TGI,[28],47.3 µM
same,TGI,[29],56.7 µM
same,TGI,[30],42.6 µM
same,TGI,[31],29 µM
same,TGI,[32],35.9 µM
same,TGI,[33],41.4 µM
same,TGI,[34],30 µM
same,TGI,[35],37.6 µM
same,TGI,[36],32.5 µM
same,TGI,[37],33.2 µM
same,TGI,[38],23.8 µM
same,TGI,[39],35.4 µM
same,TGI,[40],32.3 µM
same,TGI,[41],29.1 µM
same,TGI,[42],68.7 µM
same,TGI,[43],35.5 µM
same,TGI,[44],45.9 µM
same,TGI,[46],35.7 µM
same,TGI,[47],27.5 µM
same,TGI,[48],28.1 µM
same,TGI,[49],27.3 µM
same,TGI,[50],31.7 µM
same,TGI,[51],37.4 µM
same,TGI,[52],36.4 µM
same,TGI,[53],31.8 µM
same,TGI,[54],28.5 µM
same,TGI,[55],36 µM
same,TGI,[56],33.1 µM
same,TGI,[57],26.6 µM
